Legend:
Experiment in all cases: biochemical
BIKE = target: T1, BIKE (Homo sapiens, UniProt Q9NSY1); set-up: Thermal shift assay (DSF, SYPRO Orange), 2 uM kinase domain, mean delta Tm of triplicates versus DMSO; conditions: read-out: BIKE
T1 construct: gene BMP2K; catalytic domain-containing construct
Method: (§1) All measurements were performed in triplicate and mean values were reported for all compounds (Table S1). […] However, NAKs are often omitted from selectivity panels, including commercial screens.

GAK = target: T2, GAK (Homo sapiens, UniProt O14976); set-up: Thermal shift assay (DSF, SYPRO Orange), 2 uM kinase domain, mean delta Tm of triplicates versus DMSO; conditions: read-out: GAK
T2 construct: catalytic domain-containing construct
T2 sequence (O14976 1-1311): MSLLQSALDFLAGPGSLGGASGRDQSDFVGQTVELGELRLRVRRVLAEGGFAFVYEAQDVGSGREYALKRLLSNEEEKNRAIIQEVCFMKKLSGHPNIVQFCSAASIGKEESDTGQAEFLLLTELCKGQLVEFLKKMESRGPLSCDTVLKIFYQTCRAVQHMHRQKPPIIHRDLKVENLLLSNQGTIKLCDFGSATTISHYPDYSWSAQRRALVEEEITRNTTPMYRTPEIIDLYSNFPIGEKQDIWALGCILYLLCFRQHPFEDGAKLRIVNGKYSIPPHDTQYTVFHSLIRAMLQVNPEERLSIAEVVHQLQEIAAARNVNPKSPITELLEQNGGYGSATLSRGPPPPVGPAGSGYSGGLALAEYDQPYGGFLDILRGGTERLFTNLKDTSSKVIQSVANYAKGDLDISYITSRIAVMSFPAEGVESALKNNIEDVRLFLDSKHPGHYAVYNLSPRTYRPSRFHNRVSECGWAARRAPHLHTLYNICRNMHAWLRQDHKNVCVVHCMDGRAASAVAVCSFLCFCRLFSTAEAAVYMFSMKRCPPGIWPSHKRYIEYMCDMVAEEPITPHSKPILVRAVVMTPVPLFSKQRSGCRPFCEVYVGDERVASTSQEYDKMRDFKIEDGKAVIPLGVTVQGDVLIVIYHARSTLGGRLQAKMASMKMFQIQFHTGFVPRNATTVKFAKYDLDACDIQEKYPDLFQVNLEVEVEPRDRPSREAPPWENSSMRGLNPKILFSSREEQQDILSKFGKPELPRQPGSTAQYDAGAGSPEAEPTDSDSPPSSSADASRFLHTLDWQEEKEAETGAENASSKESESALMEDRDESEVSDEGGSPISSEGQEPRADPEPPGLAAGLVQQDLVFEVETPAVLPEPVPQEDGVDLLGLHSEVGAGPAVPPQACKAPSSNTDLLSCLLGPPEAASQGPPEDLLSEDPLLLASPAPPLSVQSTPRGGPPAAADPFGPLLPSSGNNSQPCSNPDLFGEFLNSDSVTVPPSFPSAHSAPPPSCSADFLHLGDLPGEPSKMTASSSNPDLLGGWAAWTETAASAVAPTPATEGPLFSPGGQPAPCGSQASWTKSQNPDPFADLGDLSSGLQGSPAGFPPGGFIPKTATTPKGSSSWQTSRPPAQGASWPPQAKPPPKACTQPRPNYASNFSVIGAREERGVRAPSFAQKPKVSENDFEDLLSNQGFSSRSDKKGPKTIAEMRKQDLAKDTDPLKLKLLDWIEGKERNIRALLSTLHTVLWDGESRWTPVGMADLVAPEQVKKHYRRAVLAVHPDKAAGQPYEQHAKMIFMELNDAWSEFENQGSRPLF
Method: as §1

MPSK1 = target: T3, MPSK1 (Homo sapiens, UniProt O75716); set-up: Thermal shift assay (DSF, SYPRO Orange), 2 uM kinase domain, mean delta Tm of triplicates versus DMSO; conditions: read-out: MPSK1
T3 construct: gene STK16; catalytic domain-containing construct
T3 sequence (O75716 whole entry, the tested form may be a part): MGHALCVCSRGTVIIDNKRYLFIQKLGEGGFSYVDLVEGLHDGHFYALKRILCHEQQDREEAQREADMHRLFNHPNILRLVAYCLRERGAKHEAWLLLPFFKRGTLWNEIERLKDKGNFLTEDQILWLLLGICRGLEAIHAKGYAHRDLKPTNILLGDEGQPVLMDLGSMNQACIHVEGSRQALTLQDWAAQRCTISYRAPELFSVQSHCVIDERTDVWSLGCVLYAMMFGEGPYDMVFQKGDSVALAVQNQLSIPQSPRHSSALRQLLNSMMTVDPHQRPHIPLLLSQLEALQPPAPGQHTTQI
Method: as §1

AAK1 = AAK1 (Homo sapiens, UniProt Q2M2I8); set-up: kinase domain; Thermal shift assay (DSF, SYPRO Orange), 2 uM kinase domain, mean delta Tm of triplicates versus DMSO; conditions: read-out: AAK1
Chain of AAK1 (Q2M2I8 27-365 limits assumed): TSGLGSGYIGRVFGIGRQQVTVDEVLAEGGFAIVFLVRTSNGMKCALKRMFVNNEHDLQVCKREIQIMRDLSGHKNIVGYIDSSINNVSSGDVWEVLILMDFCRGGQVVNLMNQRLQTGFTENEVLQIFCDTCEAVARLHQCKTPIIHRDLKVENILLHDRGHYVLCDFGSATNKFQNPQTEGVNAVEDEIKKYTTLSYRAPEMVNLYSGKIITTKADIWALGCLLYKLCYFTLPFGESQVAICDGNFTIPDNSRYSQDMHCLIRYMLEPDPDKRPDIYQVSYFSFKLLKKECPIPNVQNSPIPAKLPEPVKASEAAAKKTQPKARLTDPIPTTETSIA
Method: as §1

T1 sequence (Q9NSY1 whole entry, the tested form may be a part): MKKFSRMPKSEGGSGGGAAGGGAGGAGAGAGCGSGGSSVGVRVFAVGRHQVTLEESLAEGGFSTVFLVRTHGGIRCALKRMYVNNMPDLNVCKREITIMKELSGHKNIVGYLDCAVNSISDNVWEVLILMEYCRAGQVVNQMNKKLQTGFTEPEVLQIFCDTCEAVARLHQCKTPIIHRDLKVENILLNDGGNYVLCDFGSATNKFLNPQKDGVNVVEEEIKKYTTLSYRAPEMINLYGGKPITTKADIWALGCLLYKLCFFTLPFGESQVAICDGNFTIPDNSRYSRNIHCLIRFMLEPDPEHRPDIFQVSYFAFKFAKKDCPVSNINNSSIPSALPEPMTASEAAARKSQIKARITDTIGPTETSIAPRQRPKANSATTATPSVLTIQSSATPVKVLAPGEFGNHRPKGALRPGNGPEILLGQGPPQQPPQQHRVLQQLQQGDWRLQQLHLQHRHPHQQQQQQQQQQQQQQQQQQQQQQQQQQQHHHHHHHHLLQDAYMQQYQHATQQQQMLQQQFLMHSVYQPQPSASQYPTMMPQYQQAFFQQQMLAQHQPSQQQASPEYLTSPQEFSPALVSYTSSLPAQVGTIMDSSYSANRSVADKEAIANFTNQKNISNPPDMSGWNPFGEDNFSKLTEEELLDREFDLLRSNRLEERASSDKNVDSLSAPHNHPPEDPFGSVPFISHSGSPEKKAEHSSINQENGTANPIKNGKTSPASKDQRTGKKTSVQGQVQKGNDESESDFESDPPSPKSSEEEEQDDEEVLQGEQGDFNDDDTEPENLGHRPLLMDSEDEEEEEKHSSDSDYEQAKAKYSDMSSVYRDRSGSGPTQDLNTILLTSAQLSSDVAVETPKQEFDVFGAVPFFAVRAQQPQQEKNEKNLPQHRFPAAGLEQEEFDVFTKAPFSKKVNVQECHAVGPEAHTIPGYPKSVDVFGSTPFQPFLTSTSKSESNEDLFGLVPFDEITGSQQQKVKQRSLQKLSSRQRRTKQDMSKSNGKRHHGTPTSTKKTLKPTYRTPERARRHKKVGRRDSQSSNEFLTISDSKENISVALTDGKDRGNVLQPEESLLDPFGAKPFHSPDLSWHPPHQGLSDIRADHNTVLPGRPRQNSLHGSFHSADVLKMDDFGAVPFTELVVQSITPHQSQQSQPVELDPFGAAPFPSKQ

ΔTm at 12.5 µM (BIKE) [°C] | ΔTm at 12.5 µM (GAK) [°C] | ΔTm at 12.5 µM (MPSK1) [°C] | ΔTm at 12.5 µM (AAK1) [°C] | Compound
8.42 | 9.03 | 2.75 | 7.77 | COc1cc(N2CCC(N3CCN(C)CC3)CC2)ccc1Nc1ncc(Cl)c(Nc2ccccc2P(C)(C)=O)n1 [AP26113]
2.92 | 3.17 | 1.08 | 4.23 | COc1cc(N2CCC(N3CCN(C)CC3)CC2)ccc1Nc1ncnc(Nc2ccccc2S(=O)(=O)C(C)C)n1 [ASP3026]
15.6 | 4.52 | 9.49 | 12.1 | O=C(Nc1c[nH]nc1-c1nc2ccc(CN3CCOCC3)cc2[nH]1)NC1CC1 [AT9283]
3.37 | 3.09 | 3.4 | 1.65 | CC(C)Oc1cc(Nc2nc(N[C@@H](C)c3ccc(F)cn3)ncc2Cl)n[nH]1 [AZ23]
6.16 | 6.52 | 4.12 | 5.37 | COc1cc(OC2CCN(C)CC2)ccc1Nc1ncc2c(n1)n(C1CCCC1)c(=O)n2C [AZ3146]
6.41 | 0.667 | 5.04 | 4.44 | Cc1cc(Nc2nc(N[C@@H](C)c3ncc(F)cn3)ncc2Cl)[nH]n1 [AZD1480]
0.477 | -0.433 | 1.12 | 0.373 | CNC(=O)c1cccc(-c2ccc3c(N4CCOC[C@@H]4C)nc(N4CCOC[C@@H]4C)nc3n2)c1 [AZD2014]
5.45 | -0.197 | 6.5 | 3.26 | COc1cc(CCc2cc(NC(=O)c3ccc(N4C[C@@H](C)N[C@@H](C)C4)cc3)n[nH]2)cc(OC)c1 [AZD4547]
0.12 | -0.753 | 0.947 | 0.04 | COc1ccc(-c2ccc3c(N4CCOC[C@@H]4C)nc(N4CCOC[C@@H]4C)nc3n2)cc1CO [AZD8055]
0.227 | -0.347 | 0.463 | 0.187 | Cc1cc(C(=O)NOCCO)c(Nc2ccc(I)cc2F)n(C)c1=O [AZD8330]
4.37 | 2.18 | 0.293 | 2.62 | Cc1c(NC(=O)OC[C@@H]2COCCN2)cn2ncnc(Nc3ccc4c(cnn4Cc4cccc(F)c4)c3)c12 [BMS-599626]
2.91 | -0.337 | 5.21 | 0.483 | C[C@@]1(C(=O)Nc2ccc(F)nc2)CCCN1c1nc(Nc2cc(C3CC3)n[nH]2)c2cccn2n1 [BMS-754807]
4.41 | 1.58 | 0.99 | 1.25 | CCn1c(C(=O)N(C2CC2)C2CC2)cc2c3c(ncn3C)c(Nc3cc(C)n(C)n3)nc21 [BMS-911543]
15.9 | 4.05 | 8.25 | 9.95 | O=C(Nc1cccc(Nc2ncc(Br)c(NCCc3cnc[nH]3)n2)c1)N1CCCC1 [BX-912]
3.88 | 2.41 | 0.743 | 4.38 | Cc1nc(NC(=O)N2CCC[C@H]2C(N)=O)sc1-c1ccnc(C(C)(C)C(F)(F)F)c1 [BYL719]
0.917 | 2.77 | 0.407 | 0.713 | C#Cc1cccc(Nc2ncnc3cc(OC)c(OCCCCCCC(=O)NO)cc23)c1 [CUDC-101]

Further lines, the compound ahead of its results:

Compound | ΔTm at 12.5 µM (BIKE) [°C] | ΔTm at 12.5 µM (GAK) [°C] | ΔTm at 12.5 µM (MPSK1) [°C] | ΔTm at 12.5 µM (AAK1) [°C]
COc1cc(O)c2c(c1)/C=C/C[C@H](O)[C@H](O)C(=O)/C=C\C[C@H](C)OC2=O [(5Z)-7-oxozeaenol, (3S,5Z,8S,9S,11E)-3,4,9,10-tetrahydro-8,9,16-trihydroxy-14-methoxy-3-methyl-1H-2-benzoxacyclotetradecin-1,7(8H)-dione] | 14 | 16.7 | 1.09 | 11.4
CCN(CCO)CCCOc1ccc2c(Nc3cc(CC(=O)Nc4cccc(F)c4)[nH]n3)ncnc2c1 [AZD1152-HQPA] | 2.02 | -0.54 | 0.953 | 
CN(C)C/C=C/C(=O)Nc1cc2c(Nc3ccc(F)c(Cl)c3)ncnc2cc1O[C@H]1CCOC1 [Afatinib] | 1.95 | 3.38 | 0.897 | 1.31
CCc1cc2c(cc1N1CCC(N3CCOCC3)CC1)C(C)(C)c1[nH]c3cc(C#N)ccc3c1C2=O [Alectinib] | 0.673 | 6.7 | 1.29 | 0.613
COc1cc(Nc2ncc3c(n2)-c2ccc(Cl)cc2C(c2c(F)cccc2OC)=NC3)ccc1C(=O)O [Alisertib] | 0.78 | -0.237 | 2.32 | 0.29
CN1CC[C@H](c2c(O)cc(O)c3c(=O)cc(-c4ccccc4Cl)oc23)[C@H](O)C1 [Alvocidib] | 1.46 | 1.31 | 1.55 | 1.86
S=C(NCc1ccc2c(c1)OCO2)N1CCN(c2ncnc3c2oc2ccccc23)CC1 [Amuvatinib] | 1.16 | 0.377 | 0.233 | 1.93
N#CC1(c2ccc(NC(=O)c3cccnc3NCc3ccncc3)cc2)CCCC1 [Apatinib] | 0.843 | -0.113 | 0.55 | 0.223
Cc1c(CN2CCN(C(=O)[C@H](C)O)CC2)sc2c(N3CCOCC3)nc(-c3cnc(N)nc3)nc12 [Apitolisib] | 1.55 | 0.847 | 3.51 | 1.4
CNC(=O)c1ccccc1Sc1ccc2c(/C=C/c3ccccn3)n[nH]c2c1 [Axitinib] | 12.4 | 0.75 | 3.09 | 6.85
CC[C@@H]1C(=O)N(C)c2cnc(Nc3ccc(C(=O)NC4CCN(C)CC4)cc3OC)nc2N1C1CCCC1 [BI 2536] |  | 4.13 |  | 
Cc1ccc(NC(=O)c2ccc(CN3CC[C@H](N(C)C)C3)c(C(F)(F)F)c2)cc1Nc1nccc(-c2cncnc2)n1 [Bafetinib] | 1.1 | 4.57 | 2.51 | 1.07
COc1cc(Nc2c(C#N)cnc3cc(OCCCN4CCN(C)CC4)c(OC)cc23)c(Cl)cc1Cl [Bosutinib] | 5.88 | 9.42 | 1.25 | 3.03
Cc1cc2c(F)c(Oc3ncnn4cc(OC[C@@H](C)O)c(C)c34)ccc2[nH]1 [Brivanib] | 0.81 | 0.347 | 0.977 | 1.34
Nc1cc(C(F)(F)F)c(-c2cc(N3CCOCC3)nc(N3CCOCC3)n2)cn1 [Buparlisib] | 0.573 | -0.927 | 1.75 | 0.317
COc1cc2nccc(Oc3ccc(NC(=O)C4(C(=O)Nc5ccc(F)cc5)CC4)cc3)c2cc1OC [Cabozantinib] | 0.743 | 2.46 | 0.713 | 0.82
CS(=O)(=O)N1CCN(Cc2cc3nc(-c4cccc5[nH]ncc45)nc(N4CCOCC4)c3s2)CC1 [Pictilisib] | 4.67 |  | 5.92 | 2.3
